Reference: US11980632B2 (priority 2020, dated 2024)

Test system: corona-pseudovirus
Type: cell-based, SARS-CoV-2

Molecule | infection with the corona-pseudovirus (degree of infection depending on drug concentration)
CN(C)C(=O)COC(=O)Cc1ccc(OC(=O)c2ccc(NC(=N)N)cc2)cc1 [Camostat] | inhibited in a concentration-dependent manner
CCN(CCO)CCCC(C)Nc1ccnc2cc(Cl)ccc12 (stereo not drawn) [hydroxychloroquinine] | inhibited in a concentration-dependent manner
heparin | inhibited in a concentration-dependent manner
